Laboratory results taken from ChEMBL document CHEMBL3046086, “In-silico design, synthesis and evaluation of novel DNA-gyrase B inhibitors” (2013).

Assays:
Escherichia coli = assay: Antibacterial activity against Escherichia coli assessed as growth inhibition at 1500 uM after 24 hr by agar well diffusion method; assay type: functional; conditions: read-out: IZ
Staphylococcus aureus = assay: Antibacterial activity against Staphylococcus aureus assessed as growth inhibition at 1500 uM after 24 hr by agar well diffusion method; assay type: functional; conditions: read-out: IZ

Cc1cc(O)nc2cc(N)ccc12
zone of inhibition at 1500 µM (Escherichia coli): 4 mm
zone of inhibition at 1500 µM (Staphylococcus aureus): 5.5 mm

Cc1cc(=O)[nH]c2cc(Nc3ncccc3C(=O)O)ccc12
zone of inhibition at 1500 µM (Escherichia coli): 4.2 mm
zone of inhibition at 1500 µM (Staphylococcus aureus): 5 mm

Cc1cc(=O)[nH]c2cc(Nc3ccncc3C(=O)O)ccc12
zone of inhibition at 1500 µM (Escherichia coli): 7 mm
zone of inhibition at 1500 µM (Staphylococcus aureus): 9 mm

Cc1cc(=O)[nH]c2cc(Nc3nccnc3C(=O)O)ccc12
zone of inhibition at 1500 µM (Escherichia coli): 8 mm
zone of inhibition at 1500 µM (Staphylococcus aureus): 7.5 mm

Cc1cc(=O)[nH]c2cc(Nc3cccc(C(=O)O)c3)ccc12
zone of inhibition at 1500 µM (Escherichia coli): 7 mm
zone of inhibition at 1500 µM (Staphylococcus aureus): 7 mm

Cc1cc(=O)[nH]c2cc(Nc3cnc(C(=O)O)cn3)ccc12
zone of inhibition at 1500 µM (Escherichia coli): 8.5 mm
zone of inhibition at 1500 µM (Staphylococcus aureus): 9 mm

O=C(O)c1cn(C2CC2)c2cc(N3CCNCC3)c(F)cc2c1=O [CIPROFLOXACIN]
zone of inhibition at 1500 µM (Staphylococcus aureus): 15 mm

Cc1cc(=O)[nH]c2cc(Nc3ccccc3C(=O)O)ccc12
zone of inhibition at 1500 µM (Escherichia coli): 7 mm
zone of inhibition at 1500 µM (Staphylococcus aureus): 8 mm

Cc1cc(=O)[nH]c2cc(Nc3ccc(C(=O)O)cn3)ccc12
zone of inhibition at 1500 µM (Staphylococcus aureus): 3 mm

Cc1cc(=O)[nH]c2cc(Nc3ccc(C(=O)O)cc3)ccc12
zone of inhibition at 1500 µM (Escherichia coli): 12.8 mm
zone of inhibition at 1500 µM (Staphylococcus aureus): 13.5 mm
